Assay results taken from patent US11279691B2, “Substituted pyridine and pyrazine compounds as PDE4 inhibitors” (Dart Neuroscience LLC, priority 2013, dated 2022).

Molecular target: T1, PDE4D3 (Homo sapiens, UniProt Q08499)
T1 construct: GST
Format: biochemical
Settings: GST-tagged PDE4D3, 200 nM FAM-cAMP, 11-point dose-response; read-out: PD4d3 pEC50 (converted)

T1 sequence (Q08499 1-673 isoform Q08499-2): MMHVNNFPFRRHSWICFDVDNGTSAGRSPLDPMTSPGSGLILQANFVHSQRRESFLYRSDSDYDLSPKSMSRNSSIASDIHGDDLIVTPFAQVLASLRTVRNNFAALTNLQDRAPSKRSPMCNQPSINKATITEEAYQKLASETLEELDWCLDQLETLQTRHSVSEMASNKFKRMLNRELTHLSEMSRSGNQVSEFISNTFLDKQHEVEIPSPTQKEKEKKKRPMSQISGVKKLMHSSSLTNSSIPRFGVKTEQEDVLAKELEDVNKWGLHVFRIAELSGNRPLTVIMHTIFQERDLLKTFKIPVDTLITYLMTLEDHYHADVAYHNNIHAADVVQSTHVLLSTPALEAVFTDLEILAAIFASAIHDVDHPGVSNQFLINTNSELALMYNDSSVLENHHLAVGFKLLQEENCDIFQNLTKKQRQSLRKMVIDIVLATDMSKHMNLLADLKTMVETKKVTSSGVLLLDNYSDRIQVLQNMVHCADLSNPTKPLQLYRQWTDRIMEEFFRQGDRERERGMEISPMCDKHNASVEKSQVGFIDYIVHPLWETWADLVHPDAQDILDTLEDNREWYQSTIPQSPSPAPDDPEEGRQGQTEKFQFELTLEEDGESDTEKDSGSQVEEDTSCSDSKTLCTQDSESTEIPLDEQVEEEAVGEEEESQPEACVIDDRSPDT

Structure (SMILES)	EC50 [nM]
CCOc1ncc(Cn2cnc(CO)n2)cc1-c1ccccc1F [Example 277, (1-((6-Ethoxy-5-(2-fluorophenyl)pyridin-3-yl)methyl)-1H-1,2,4-triazol-3-yl)methanol]	> 10000
COc1ncc(Cc2cnc(CC(N)=O)nc2)cc1-c1cccc(Cl)c1 [Example 369, 2-(5-{[5-(3-Chlorophenyl)-6-methoxypyridin-3-yl]methyl}pyrimidin-2-yl)acetamide]	< 100
CCOc1cc(-c2cc(Cc3cnc(N)nc3)cnc2OC)ccc1F [Example 355, 5-{[5-(3-Ethoxy-4-fluorophenyl)-6-methoxypyridin-3-yl]methyl}pyrimidin-2-amine]	100 to 1000
CCOc1ncc(Cn2cnc(CO)n2)cc1-c1cccc(OC)c1 [Example 327, (1-{[6-Ethoxy-5-(3-methoxyphenyl)pyridin-3-yl]methyl}-1H-1,2,4-triazol-3-yl)methanol]	< 100
COc1ncc(Cn2nnc(CO)n2)cc1-c1ccc(Cl)c(F)c1 [Example 385, (2-{[5-(4-Chloro-3-fluorophenyl)-6-methoxypyridin-3-yl]methyl}-2H-1,2,3,4-tetrazol-5-yl)methanol]	100 to 1000
CCOC(=O)Cc1ccc(Cc2cnc(OC)c(-c3cccc(Cl)c3)c2)cc1 [Intermediate 50, Ethyl 2-(4-{[5-(3-chlorophenyl)-6-methoxypyridin-3-yl]methyl}phenyl)acetate]	100 to 1000
COc1ncc(Cc2cnnc(C)c2)cc1-c1cccc(Cl)c1 [Example 305, 5-{[5-(3-Chlorophenyl)-6-methoxypyridin-3-yl]methyl}-3-methylpyridazine]	100 to 1000
CCOc1ncc(Cn2nnnc2C)cc1-c1ccnc(OC(F)F)c1 [Example 396, 3-[2-(Difluoromethoxy)pyridin-4-yl]-2-ethoxy-5-[(5-methyl-1H-1,2,3,4-tetrazol-1-yl)methyl]pyridine]	< 100
COc1ncc(Cc2cnc(C(N)=O)nc2)cc1-c1ccc(F)cc1 [Example 374, 5-{[5-(4-Fluorophenyl)-6-methoxypyridin-3-yl]methyl}pyrimidine-2-carboxamide]	100 to 1000
CCOc1ncc(Cn2cc(CO)nc2C)cc1-c1cccc(Cl)c1 [Example 326, (1-{[5-(3-Chlorophenyl)-6-ethoxypyridin-3-yl]methyl}-2-methyl-1H-imidazol-4-yl)methanol]	< 100
CCOc1ncc(Cn2cc(CO)cn2)cc1-c1cccc(Cl)c1 [Example 273, (1-{[5-(3-Chlorophenyl)-6-ethoxypyridin-3-yl]methyl}-1H-pyrazol-4-yl)methanol]	100 to 1000
CCOc1ncc(Cn2c(CO)cnc2C)cc1-c1cccc(Cl)c1 [Example 319, (1-{[5-(3-Chlorophenyl)-6-ethoxypyridin-3-yl]methyl}-2-methyl-1H-imidazol-5-yl)methanol]	100 to 1000
COc1ncc(Cc2ccc(CC(N)=O)cc2)cc1-c1cccc(Cl)c1 [Example 280, 2-(4-((5-(3-Chlorophenyl)-6-methoxypyridin-3-yl)methyl)phenyl)acetamide]	< 100
CCOc1ncc(Cn2cnc(CO)n2)cc1-c1cccc(C(F)(F)F)c1 [Example 332, [1-({6-Ethoxy-5-[3-(trifluoromethyl)phenyl]pyridin-3-yl}methyl)-1H-1,2,4-triazol-3-yl]methanol]	1000 to 10000
COc1ncc(Cn2ccc(C(N)=O)n2)cc1-c1ccnc(OC(F)F)c1 [Example 309, 1-({5-[2-(Difluoromethoxy)pyridin-4-yl]-6-methoxypyridin-3-yl}methyl)-1H-pyrazole-3-carboxamide]	< 100
COc1ncc(Cc2cnc(N3CC(O)C3)nc2)cc1-c1cccc(Cl)c1 [Example 390, 1-(5-{[5-(3-Chlorophenyl)-6-methoxypyridin-3-yl]methyl}pyrimidin-2-yl)azetidin-3-ol]	100 to 1000
COc1ncc(Cn2nnc(CO)n2)cc1-c1cccc(Cl)c1 [Example 388, (2-{[5-(3-Chlorophenyl)-6-methoxypyridin-3-yl]methyl}-2H-1,2,3,4-tetrazol-5-yl)methanol]	100 to 1000
CCOc1ncc(Cn2nc(C)cc2CO)cc1-c1cccc(Cl)c1 [Example 320, (1-{[5-(3-Chlorophenyl)-6-ethoxypyridin-3-yl]methyl}-3-methyl-1H-pyrazol-5-yl)methanol]	> 10000
COc1ncc(Cc2cnc(N)nc2)cc1-c1ccc(F)c(Cl)c1 [Example 359, 5-{[5-(3-Chloro-4-fluorophenyl)-6-methoxypyridin-3-yl]methyl}pyrimidin-2-amine]	< 100
CCOc1ncc(Cn2nc(CO)cc2C)nc1-c1cccc(Cl)c1 [Example 323, (1-{[6-(3-Chlorophenyl)-5-ethoxypyrazin-2-yl]methyl}-5-methyl-1H-pyrazol-3-yl)methanol]	1000 to 10000
CCOc1ncc(Cn2cnc(CO)n2)cc1-c1ccc(F)c(C)c1 [Example 331, (1-{[6-Ethoxy-5-(4-fluoro-3-methylphenyl)pyridin-3-yl]methyl}-1H-1,2,4-triazol-3-yl)methanol]	100 to 1000

Structure (SMILES)	EC50 [nM]
COc1ncc(Cc2cnc(O)nc2)cc1-c1cccc(Cl)c1 [Example 302, 5-((5-(3-Chlorophenyl)-6-methoxypyridin-3-yl)methyl)pyrimidin-2-ol]	1000 to 10000
CCOc1ncc(Cn2cnc(C(F)(F)F)n2)cc1-c1cccc(OC(F)F)c1 [Example 162, 3-[3-(Difluoromethoxy)phenyl]-2-ethoxy-5-{[3-(trifluoromethyl)-1H-1,2,4-triazol-1-yl]methyl}pyridine]	100 to 1000
COc1ncc(Cc2ccc(CC(N)=O)cc2)cc1-c1ccc(F)cc1 [Example 364, 2-(4-{[5-(4-Fluorophenyl)-6-methoxypyridin-3-yl]methyl}phenyl)acetamide]	< 100
CCOc1ncc(Cn2cnc(C(N)=O)c2)nc1-c1cccc(Cl)c1 [Example 312, 1-{[6-(3-Chlorophenyl)-5-ethoxypyrazin-2-yl]methyl}-1H-imidazole-4-carboxamide]	< 100
COc1ncc(Cc2cnc(OC(F)F)nc2)cc1-c1cccc(Cl)c1 [Example 304, 5-((5-(3-Chlorophenyl)-6-methoxypyridin-3-yl)methyl)-2-(difluoromethoxy)pyrimidine]	100 to 1000
NC(=O)Cc1ncc(Cc2cnc(OCC(F)F)c(-c3cccc(Cl)c3)c2)cn1 [Example 371, 2-(5-{[5-(3-Chlorophenyl)-6-(2,2-difluoroethoxy)pyridin-3-yl]methyl}pyrimidin-2-yl)acetamide]	< 100
CCOc1ncc(Cn2cnc(CO)n2)cc1-c1cccc(N(C)C)c1 [Example 335, [1-({5-[3-(Dimethylamino)phenyl]-6-ethoxypyridin-3-yl}methyl)-1H-1,2,4-triazol-3-yl]methanol]	1000 to 10000
COc1ncc(Cc2cnc(NCCO)cn2)cc1-c1cccc(Cl)c1 [Example 290, 2-((5-((5-(3-Chlorophenyl)-6-methoxypyridin-3-yl)methyl)pyrazin-2-yl)amino) ethanol]	< 100
CCOc1ncc(Cn2cnc(C(N)=O)c2)cc1-c1ccnc(OC(F)F)c1 [Example 311, 1-({5-[2-(Difluoromethoxy)pyridin-4-yl]-6-ethoxypyridin-3-yl}methyl)-1H-imidazole-4-carboxamide]	100 to 1000
COc1ncc(Cc2cnc(OCCO)nc2)cc1-c1cccc(Cl)c1 [Example 303, 2-((5-((5-(3-Chlorophenyl)-6-methoxypyridin-3-yl)methyl)pyrimidin-2-yl)oxy)ethanol]	< 100
CCOc1ncc(Cc2cnc(N)nc2)cc1-c1ccc(Cl)cc1 [Example 351, 5-{[5-(4-Chlorophenyl)-6-ethoxypyridin-3-yl]methyl}pyrimidin-2-amine]	100 to 1000
COc1ncc(Cc2cnc(C(C)(C)C#N)nc2)cc1-c1cccc(Cl)c1 [Example 284, 2-(5-((5-(3-Chlorophenyl)-6-methoxypyridin-3-yl)methyl)pyrimidin-2-yl)-2-methylpropanenitrile]	1000 to 10000
CCOc1ncc(Cc2cnc(N)nc2)cc1-c1ccc(F)c(Cl)c1 [Example 279, 5-((5-(3-Chloro-4-fluorophenyl)-6-ethoxypyridin-3-yl)methyl)pyrimidin-2-amine]	< 100
CCOc1ncc(Cn2cnc(CO)n2)cc1-c1cncc(Cl)c1 [Example 329, (1-{[5-(5-Chloropyridin-3-yl)-6-ethoxypyridin-3-yl]methyl}-1H-1,2,4-triazol-3-yl)methanol]	1000 to 10000
COc1ncc(Cn2cc(CO)nc2C)cc1-c1ccnc(OC(F)F)c1 [Example 315, [1-({5-[2-(Difluoromethoxy)pyridin-4-yl]-6-methoxypyridin-3-yl}methyl)-2-methyl-1H-imidazol-4-yl]methanol]	100 to 1000
COc1ncc(Cn2ccc(C(N)=O)n2)cc1-c1cccc(Cl)c1 [Example 308, 1-{[5-(3-Chlorophenyl)-6-methoxypyridin-3-yl]methyl}-1H-pyrazole-3-carboxamide]	100 to 1000
OCc1ncn(Cc2cnc(OCC(F)(F)F)c(-c3cccc(Cl)c3)c2)n1 [Example 300, (1-((5-(3-Chlorophenyl)-6-(2,2,2-trifluoroethoxy)pyridin-3-yl)methyl)-1H-1,2,4-triazol-3-yl)methanol]	100 to 1000
CCOc1ncc(Cn2cnc(CO)n2)cc1-c1ccc(F)c(F)c1 [Example 340, (1-{[5-(3,4-Difluorophenyl)-6-ethoxypyridin-3-yl]methyl}-1H-1,2,4-triazol-3-yl)methanol]	< 100
COc1ncc(Cc2cnc(C#N)nc2)nc1-c1cccc(OC(F)F)c1 [Example 107, 5-({6-[3-(Difluoromethoxy)phenyl]-5-methoxypyrazin-2-yl}methyl)pyrimidine-2-carbonitrile]	100 to 1000
CCOc1ncc(Cn2cnc(CO)n2)cc1-c1cc(F)cc(F)c1 [Example 338, (1-{[5-(3,5-Difluorophenyl)-6-ethoxypyridin-3-yl]methyl}-1H-1,2,4-triazol-3-yl)methanol]	100 to 1000
COc1ncc(Cn2nnnc2C)cc1-c1cccc(Cl)c1 [Example 380, 3-(3-Chlorophenyl)-2-methoxy-5-[(5-methyl-1H-1,2,3,4-tetrazol-1-yl)methyl]pyridine]	< 100
